Assay results as given in US8318711B2, “Use of diacetyl trimer as an aromatic and flavouring substance” (Symrise AG, priority 2004, dated 2012).

What was measured:
[1] = Stability of diacetyl trimer on heating; type: physicochemical; settings: heated at 60° C. to 100° C. for 10 minutes
[2] = Tasting in sweet/salty solution (flavour profile by testers); type: in vivo; settings: 1 ppm in aqueous 5% sucrose or 0.5% sodium chloride solution, 9 testers; for flavour profile: fatty (oily): scale 1 (action scarcely perceptible) to 9 (action highly perceptible)
Description: The 2,5-diacetyl-3a,5,6,6a-tetrahydro-6a-hydroxy-2,3a,5-trimethylfuro[2,3-d]-1,3-dioxole from Example 1 (1 ppm diacetyl trimer in aqueous 5 wt. % sucrose or 0.5% sodium chloride solution) was investigated for its flavouring action by 9 testers. The actions found were evaluated with a scale of from 1 (action scarcely perceptible) to 9 (action highly perceptible).
For comparison, a flavour profile of diacetyl (1 ppm in aq. 5% sucrose or 0.5% sodium chloride solution) was produced under otherwise identical conditions: fatty (oily) (5), cream (5), butter (7), milk (4), condensed milk (4), fruity (2), cheesy (2), sweet (4), vanillin (2), intensity (7), impact (7), fullness (7), adhesive (5), soft (6)

Row | decomposition on heating [1] | Compound | flavour profile: fatty (oily) [2] | flavour profile: adhesive ([2]; scale 1 to 9) | flavour profile: butter ([2]; scale 1 to 9) | flavour profile: caramel ([2]; scale 1 to 9) | flavour profile: cream ([2]; scale 1 to 9) | flavour profile: fresh cheese/quark ([2]; scale 1 to 9) | flavour profile: fullness ([2]; scale 1 to 9) | flavour profile: impact ([2]; scale 1 to 9) | flavour profile: intensity ([2]; scale 1 to 9) | flavour profile: soft ([2]; scale 1 to 9) | flavour profile: sweet ([2]; scale 1 to 9) | flavour profile: toffee ([2]; scale 1 to 9) | flavour profile: vanillin ([2]; scale 1 to 9) | flavour profile: cheesy ([2]; scale 1 to 9) | flavour profile: condensed milk ([2]; scale 1 to 9) | flavour profile: fruity ([2]; scale 1 to 9) | flavour profile: milk ([2]; scale 1 to 9)
1 | does not decompose | CC(=O)C1(C)CC2(O)OC(C)(C(C)=O)OC2(C)O1 (racemic) [diacetyl trimer, 2,5-diacetyl-3a,5,6,6a-tetrahydro-6a-hydroxy-2,3a,5-trimethylfuro[2,3-d]-1,3-dioxole] | 7 | 8 | 8 | 4 | 6 | 4 | 7 | 7 | 6 | 6 | 6 | 6 | 3 |  |  |  | 
2 |  | CC(=O)C(C)=O [diacetyl, 2,3-butanedione] | 5 | 5 | 7 |  | 5 |  | 7 | 7 | 7 | 6 | 4 |  | 2 | 2 | 4 | 2 | 4
